The nature of test [1]: Terbium luminescence spectra of non-phosphorylated versus phosphorylated peptides. As to conditions: 10 μM peptide, 10 mM HEPES (pH 7.8), 100 mM NaCl, excitation 280 nm. Here is the method:
FIGS. 3a, 3e and 3f show the luminescence spectra of 10 μM non-phosphorylated (red) and phosphorylated (blue) (a) pKID-pTyr11, (e) pKID-pTyr15a, and (f) pKID-pTyr15b, in the presence of (a, f) 20 μM Tb^3+ or (e) 80 μM Tb^3+. Experiments were conducted in water with 10 mM HEPES (pH 7.8) and 100 mM NaCl with excitation at 280 nm. […] The fold luminescence differentiation between non-phosphorylated and phosphorylated peptides depends on the relative Tb^3+ affinities of the peptides and on the Tb^3+ concentration. FIGS. 3b, 3c, and 3d show the TOCSY spectra of phosphorylated pKID-pTyr11 in the absence (red) and presence (blue) of La^3+ indicating metal-induced peptide folding: (b) H^N—Hα region; (c) H^N—Hβ region; (d) aromatic region.
All experiments were conducted on a Photon Technology International fluorescence spectrometer model QM-3/2003 with a CW source and a Hamamatsu R928PMT using 10 nm excitation and emission slit widths. A 495 nm highpass filter (model 495FG03-25 AM-53074; Andover Corporation) was used on the emission monochromator. Spectra were acquired at room temperature with a scan rate of 1 nm per second. In dissociation constant determinations, the observed luminescence (photon counts s^−1) was not background-corrected and represents the raw fluorescence data. In the presence of buffer only (no peptide, no metal), the luminescence at 544 nm is similar to the luminescence observed in the presence of peptide at the limit of low concentrations of Tb^3+ (approximately 1.8×10^5 photon counts s^−1). Spectral data (FIGS. 3a, 3c, and 3d) represent the average of at least three independent trials and correspond to the averaged spectra that yielded the data points at the given Tb^3+ concentrations in the dissociation constant determination plots. Spectral data in the manuscript were background-corrected. […] Spectra were acquired in 10 mm quartz fluorescence cells (Starna). […] EDTA (1 mM) was added to 500 μL of a 1 mM Tb^3+ solution diluted from a 10 mM stock until the end point was reached; Tb^3+ concentration was determined based on 1:1 binding. […]

The nature of test [2]: Dissociation constant determination of peptide-Tb^3+ complexes by Tb^3+ luminescence titration. The format is binding. Here is the method:
All experiments were conducted on a Photon Technology International fluorescence spectrometer model QM-3/2003 with a CW source and a Hamamatsu R928PMT using 10 nm excitation and emission slit widths. A 495 nm highpass filter (model 495FG03-25 AM-53074; Andover Corporation) was used on the emission monochromator. Spectra were acquired at room temperature with a scan rate of 1 nm per second. In dissociation constant determinations, the observed luminescence (photon counts s^−1) was not background-corrected and represents the raw fluorescence data. In the presence of buffer only (no peptide, no metal), the luminescence at 544 nm is similar to the luminescence observed in the presence of peptide at the limit of low concentrations of Tb^3+ (approximately 1.8×10^5 photon counts s^−1). Spectral data (FIGS. 3a, […]) represent the average of at least three independent trials and correspond to the averaged spectra that yielded the data points at the given Tb^3+ concentrations in the dissociation constant determination plots. Spectral data in the manuscript were background-corrected. Peptide solutions were prepared by the dilution of peptide stock solutions into buffer containing 5 mM HEPES (pH 7.8) and 100 mM NaCl (final concentrations). Spectra were acquired in 10 mm quartz fluorescence cells (Starna). Tb^3+ titrations were conducted by dilution of a Tb^3+ solution into a peptide solution. All TbCl3 solutions were standardized by titration with a standard solution of EDTA (1 mM) in the presence of xylenol orange indicator (10 μM) and sodium acetate buffer (pH 6.0, 10 mM). EDTA (1 mM) was added to 500 μL of a 1 mM Tb^3+ solution diluted from a 10 mM stock until the end point was reached; Tb^3+ concentration was determined based on 1:1 binding. Each individual emission spectrum represents an independently prepared solution of peptide and metal. The Tb^3+ emission band at 544 nm was used to evaluate metal binding.
To determine dissociation constants for Tb^3+-peptide complexes, Tb^3+ titrations were conducted in solutions of 5 mM HEPES (pH 7.8) and 100 mM NaCl. Each data point represents an independently prepared solution of peptide and metal. Observed luminescence (photon counts s^−1) at the emission maximum of 544 nm were plotted against Tb^3+ concentration to calculate the final Kd. Data points indicate the average of at least three independent titrations. Error bars indicate standard error. […] The quadratic equation solution to the dissociation constant (equation 1) was employed to generate an accurate solution to the binding equilibrium under conditions when the dissociation constant, peptide concentration, and metal concentration may be similar. For phosphorylated pKID-pTyr11, the dissociation constant was also measured in the presence of 2 mM Mg^2+ and 100 μM Ca^2+ to study the effect of these metals on Tb^3+-peptide complex formation.

[3] abbreviates: peptide-Tb^3+ complex, 10 μM peptide, 5 mM HEPES (pH 7.8), 100 mM NaCl.
[4] abbreviates: 10 μM peptide, footnote a: calculated by defining maximum luminescence as equal to that of the phosphorylated peptide-Tb^3+ complex (no saturation).

In general, Kd refers to the equilibrium constant for the complex coming apart. Regarding “Ac-DKDGDGWISPAAAKpYAK-NH2 [phosphorylated pKID-pTyr15b]”, the “fold greater luminescence of phosphorylated than non-phosphorylated peptide” value in test [1] (20 μM Tb^3+) is listed as 10.1 fold. This substance also came in with an equilibrium dissociation constant (Kd) in test [2] (setting [3]) of 47 ± 5 µM.
For “Ac-DKNADGWIDAAYK-NH2 [non-phosphorylated pKID-pTyr12, control peptide with Tyr at residue 12]”, the affinity in test [2] (setting [3]), expressed as Kd, was 6470 µM.
As to “Ac-DKNADGWIDAApYK-NH2 [phosphorylated pKID-pTyr12]”, binding in test [2] (setting [3]) was characterised by a dissociation constant (Kd) of 209 ± 32 µM.
For “Ac-DKNADGWIDAAAAKpYAK-NH2 [phosphorylated pKID-pTyr15a]”, in test [1] (80 μM Tb^3+), the “fold greater luminescence of phosphorylated than non-phosphorylated peptide” value was determined as 17.6 fold. The substance also had a Kd in test [2] (setting [3]) of 217 ± 21 µM.
Regarding “DKNADGWIDAAEK [EF Hand-E12, EF Hand consensus peptide with Glu at residue 12, reference compound]”, the dissociation constant (Kd) in test [2] (setting [3]) was 88 ± 8 µM.
For “Ac-DKNADGWIDAAAAKYAK-NH2 [non-phosphorylated pKID-pTyr15a]”, the Kd in test [2] (setting [4]) is 3200 µM.
As to “Ac-DKNADGWIDApYAK-NH2 [phosphorylated pKID-pTyr11, pY indicates phosphotyrosine]”, the “fold greater luminescence of phosphorylated than non-phosphorylated peptide” value in test [1] (20 μM Tb^3+) is given as 6.4 fold. Further, the “Tb^3+ binding in the presence of competing metals” value in test [2] (in the presence of 100 μM Ca^2+ and 2 mM Mg^2+) is reported as “identical”. Besides, the Kd stood at 30 µM in test [2] (peptide-Tb^3+ complex, 2 μM peptide with 2 mM Mg^2+ and 100 μM Ca^2+); 32 µM in test [2] (peptide-Tb^3+ complex, 2 μM peptide, 5 mM HEPES (pH 7.8), 100 mM NaCl); 54 ± 9 µM in test [2] (setting [3]). Besides, the “fold greater Tb^3+ affinity than the non-phosphorylated peptide” value in test [2] (phosphorylated versus non-phosphorylated peptide) came to 35 fold.
In test [2] (setting [3]), “Ac-DKNADGWIDAYAK-NH2 [non-phosphorylated pKID-pTyr11, model tyrosine kinase-inducible domain peptide, Tyr at residue 11]” yielded a Kd of 1900 ± 280 µM.
On the same count and under the same terms, the same measure for “DKNADGWIDAEAK [EF Control-E11, control peptide with Glu at residue 11, reference compound]”: 1820 ± 140 µM.
As for “Ac-DKDGDGWISPAAAKYAK-NH2 [non-phosphorylated pKID-pTyr15b]”, the dissociation constant (Kd) in test [2] (setting [4]) was 1930 µM.
